Laboratory results taken from ChEMBL document CHEMBL5046315, “CRCM5484: A BET-BDII Selective Compound with Differential Anti-leukemic Drug Modulation” (J Med Chem, 2022).
Calls of active or inactive are those of the source. The rule behind the calls is not given here.

Columns and labels:
[1] = biological target: Bromodomain-containing protein 3 (Homo sapiens, UniProt Q15059); assay: Inhibition of BRD3-BD2 (unknown origin) incubated for 6 hrs by HTRF method
K562 = assay: Cytotoxicity against human K562 cells assessed as reduction in cell viability incubated for 72 hrs; format: functional, cell-based; conditions: K562, 72 h
CCRF-CEM [2] = assay: Potentiation of 17AAG-induced antileukemic activity against human CCRF-CEM cells at 4.3 uM in presence of bone-marrow derived stromal cell-conditioned medium; format: functional, cell-based
CCRF-CEM [3] = assay: Potentiation of AC-4-130-induced antileukemic activity against human CCRF-CEM cells at 4.3 uM in presence of bone-marrow derived stromal cell-conditioned medium; format: functional, cell-based
CCRF-CEM [4] = assay: Potentiation of AG-221-induced antileukemic activity against human CCRF-CEM cells at 4.3 uM in presence of bone-marrow derived stromal cell-conditioned medium; format: functional, cell-based
CCRF-CEM [5] = assay: Potentiation of alisertib-induced antileukemic activity against human CCRF-CEM cells at 4.3 uM in presence of bone-marrow derived stromal cell-conditioned medium; format: functional, cell-based
CCRF-CEM [6] = assay: Potentiation of cladribine-induced antileukemic activity against human CCRF-CEM cells at 4.3 uM in presence of bone-marrow derived stromal cell-conditioned medium; format: functional, cell-based
CCRF-CEM [7] = assay: Potentiation of gileritinib-induced antileukemic activity against human CCRF-CEM cells at 4.3 uM in presence of bone-marrow derived stromal cell-conditioned medium; format: functional, cell-based
CCRF-CEM [8] = assay: Potentiation of olaparid-induced antileukemic activity against human CCRF-CEM cells at 4.3 uM in presence of bone-marrow derived stromal cell-conditioned medium; format: functional, cell-based
CCRF-CEM [9] = assay: Potentiation of OTX015-induced antileukemic activity against human CCRF-CEM cells at 4.3 uM in presence of bone-marrow derived stromal cell-conditioned medium; format: functional, cell-based
CCRF-CEM [10] = assay: Potentiation of prima1-induced antileukemic activity against human CCRF-CEM cells at 4.3 uM in presence of bone-marrow derived stromal cell-conditioned medium; format: functional, cell-based
CCRF-CEM [11] = assay: Potentiation of SGI-1027-induced antileukemic activity against human CCRF-CEM cells at 4.3 uM in presence of bone-marrow derived stromal cell-conditioned medium; format: functional, cell-based
CCRF-CEM [12] = assay: Potentiation of sorafenib-induced antileukemic activity against human CCRF-CEM cells at 4.3 uM in presence of bone-marrow derived stromal cell-conditioned medium; format: functional, cell-based
CCRF-CEM [13] = assay: Potentiation of tipifarnib-induced antileukemic activity against human CCRF-CEM cells at 4.3 uM in presence of bone-marrow derived stromal cell-conditioned medium; format: functional, cell-based
CCRF-CEM [14] = assay: Potentiation of topotecan-induced antileukemic activity against human CCRF-CEM cells at 4.3 uM in presence of bone-marrow derived stromal cell-conditioned medium; format: functional, cell-based
CCRF-CEM [15] = assay: Potentiation of VX680-induced antileukemic activity against human CCRF-CEM cells at 4.3 uM in presence of bone-marrow derived stromal cell-conditioned medium; format: functional, cell-based
U-937 [16] = assay: Potentiation of AraC-induced antileukemic activity against human U-937 cells at 4.3 uM in presence of bone-marrow derived stromal cell-conditioned medium; format: functional, cell-based
U-937 [17] = assay: Potentiation of clofarabine-induced antileukemic activity against human U-937 cells at 4.3 uM in presence of bone-marrow derived stromal cell-conditioned medium; format: functional, cell-based
U-937 [18] = assay: Potentiation of cyclopamine-induced antileukemic activity against human U-937 cells at 4.3 uM in presence of bone-marrow derived stromal cell-conditioned medium; format: functional, cell-based
U-937 [19] = assay: Potentiation of decitabine-induced antileukemic activity against human U-937 cells at 4.3 uM in presence of bone-marrow derived stromal cell-conditioned medium; format: functional, cell-based
U-937 [20] = assay: Potentiation of entinostat-induced antileukemic activity against human U-937 cells at 4.3 uM in presence of bone-marrow derived stromal cell-conditioned medium; format: functional, cell-based
U-937 [21] = assay: Potentiation of gileritinib-induced antileukemic activity against human U-937 cells at 4.3 uM in presence of bone-marrow derived stromal cell-conditioned medium; format: functional, cell-based
U-937 [22] = assay: Potentiation of idelalisib-induced antileukemic activity against human U-937 cells at 4.3 uM in presence of bone-marrow derived stromal cell-conditioned medium; format: functional, cell-based
U-937 [23] = assay: Potentiation of navitoclax-induced antileukemic activity against human U-937 cells at 4.3 uM in presence of bone-marrow derived stromal cell-conditioned medium; format: functional, cell-based
U-937 [24] = assay: Potentiation of niotinib-induced antileukemic activity against human U-937 cells at 4.3 uM in presence of bone-marrow derived stromal cell-conditioned medium; format: functional, cell-based
U-937 [25] = assay: Potentiation of -nutlin 3-induced antileukemic activity against human U-937 cells at 4.3 uM in presence of bone-marrow derived stromal cell-conditioned medium; format: functional, cell-based
U-937 [26] = assay: Potentiation of volasertib-induced antileukemic activity against human U-937 cells at 4.3 uM in presence of bone-marrow derived stromal cell-conditioned medium; format: functional, cell-based
MOLM-14 [27] = assay: Potentiation of AGI-5198-induced antileukemic activity against human MOLM-14 cells at 4.3 uM in presence of bone-marrow derived stromal cell-conditioned medium; format: functional, cell-based
MOLM-14 [28] = assay: Potentiation of alisertib-induced antileukemic activity against human MOLM-14 cells at 4.3 uM in presence of bone-marrow derived stromal cell-conditioned medium; format: functional, cell-based
MOLM-14 [29] = assay: Potentiation of arsenic-induced antileukemic activity against human MOLM-14 cells at 4.3 uM in presence of bone-marrow derived stromal cell-conditioned medium; format: functional, cell-based
MOLM-14 [30] = assay: Potentiation of azacitidine-induced antileukemic activity against human MOLM-14 cells at 4.3 uM in presence of bone-marrow derived stromal cell-conditioned medium; format: functional, cell-based
MOLM-14 [31] = assay: Potentiation of carfilzomib-induced antileukemic activity against human MOLM-14 cells at 4.3 uM in presence of bone-marrow derived stromal cell-conditioned medium; format: functional, cell-based
MOLM-14 [32] = assay: Potentiation of dexamethasone-induced antileukemic activity against human MOLM-14 cells at 4.3 uM in presence of bone-marrow derived stromal cell-conditioned medium; format: functional, cell-based
MOLM-14 [33] = assay: Potentiation of docetaxel-induced antileukemic activity against human MOLM-14 cells at 4.3 uM in presence of bone-marrow derived stromal cell-conditioned medium; format: functional, cell-based
MOLM-14 [34] = assay: Potentiation of gefitinib-induced antileukemic activity against human MOLM-14 cells at 4.3 uM in presence of bone-marrow derived stromal cell-conditioned medium; format: functional, cell-based
MOLM-14 [35] = assay: Potentiation of gileritinib-induced antileukemic activity against human MOLM-14 cells at 4.3 uM in presence of bone-marrow derived stromal cell-conditioned medium; format: functional, cell-based
MOLM-14 [36] = assay: Potentiation of midostaurin-induced antileukemic activity against human MOLM-14 cells at 4.3 uM in presence of bone-marrow derived stromal cell-conditioned medium; format: functional, cell-based
MOLM-14 [37] = assay: Potentiation of navitoclax-induced antileukemic activity against human MOLM-14 cells at 4.3 uM in presence of bone-marrow derived stromal cell-conditioned medium; format: functional, cell-based
MOLM-14 [38] = assay: Potentiation of rigosertib-induced antileukemic activity against human MOLM-14 cells at 4.3 uM in presence of bone-marrow derived stromal cell-conditioned medium; format: functional, cell-based
MOLM-14 [39] = assay: Potentiation of SGI-1027-induced antileukemic activity against human MOLM-14 cells at 4.3 uM in presence of bone-marrow derived stromal cell-conditioned medium; format: functional, cell-based
MOLM-14 [40] = assay: Potentiation of sunitinib-induced antileukemic activity against human MOLM-14 cells at 4.3 uM in presence of bone-marrow derived stromal cell-conditioned medium; format: functional, cell-based
MOLM-14 [41] = assay: Potentiation of vorinostat-induced antileukemic activity against human MOLM-14 cells at 4.3 uM in presence of bone-marrow derived stromal cell-conditioned medium; format: functional, cell-based

Sequence of Bromodomain-containing protein 3 (Q15059 whole entry): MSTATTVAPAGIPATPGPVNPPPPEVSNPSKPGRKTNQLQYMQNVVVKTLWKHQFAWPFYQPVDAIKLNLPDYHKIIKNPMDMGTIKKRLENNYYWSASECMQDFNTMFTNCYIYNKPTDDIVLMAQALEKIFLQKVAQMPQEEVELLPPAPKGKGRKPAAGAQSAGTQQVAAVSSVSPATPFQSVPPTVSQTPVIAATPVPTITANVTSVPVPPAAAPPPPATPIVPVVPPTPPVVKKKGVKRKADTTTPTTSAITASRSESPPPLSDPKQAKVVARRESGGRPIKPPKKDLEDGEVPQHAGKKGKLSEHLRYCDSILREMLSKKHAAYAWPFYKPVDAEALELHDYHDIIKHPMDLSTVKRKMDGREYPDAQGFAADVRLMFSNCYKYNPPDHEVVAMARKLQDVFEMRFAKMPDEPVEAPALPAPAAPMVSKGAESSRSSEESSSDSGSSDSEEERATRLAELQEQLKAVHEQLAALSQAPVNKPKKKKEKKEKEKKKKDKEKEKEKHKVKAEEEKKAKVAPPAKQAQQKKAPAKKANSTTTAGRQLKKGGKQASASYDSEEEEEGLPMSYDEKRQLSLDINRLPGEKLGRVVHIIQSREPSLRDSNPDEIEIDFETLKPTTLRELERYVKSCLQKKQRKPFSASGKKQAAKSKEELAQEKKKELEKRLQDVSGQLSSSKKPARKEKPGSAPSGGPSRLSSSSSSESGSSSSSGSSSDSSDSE

Structure (SMILES): CC(=O)N1CCc2c(sc3nc(SCC(=O)Nc4cccnc4C)n(Cc4ccco4)c(=O)c23)C1
- IC50 [1]: 20 nM
- EC50 (K562): > 5000 nM
- Activity (CCRF-CEM [2]): inactive
- Activity (CCRF-CEM [3]): inactive
- Activity (CCRF-CEM [4]): inactive
- Activity (CCRF-CEM [5]): inactive
- Activity (CCRF-CEM [6]): inactive
- Activity (CCRF-CEM [7]): inactive
- Activity (CCRF-CEM [8]): inactive
- Activity (CCRF-CEM [9]): inactive
- Activity (CCRF-CEM [10]): inactive
- Activity (CCRF-CEM [11]): inactive
- Activity (CCRF-CEM [12]): inactive
- Activity (CCRF-CEM [13]): inactive
- Activity (CCRF-CEM [14]): inactive
- Activity (CCRF-CEM [15]): inactive
- Activity (U-937 [16]): inactive
- Activity (U-937 [17]): inactive
- Activity (U-937 [18]): inactive
- Activity (U-937 [19]): inactive
- Activity (U-937 [20]): inactive
- Activity (U-937 [21]): inactive
- Activity (U-937 [22]): inactive
- Activity (U-937 [23]): inactive
- Activity (U-937 [24]): inactive
- Activity (U-937 [25]): inactive
- Activity (U-937 [26]): inactive
- Activity (MOLM-14 [27]): inactive
- Activity (MOLM-14 [28]): inactive
- Activity (MOLM-14 [29]): inactive
- Activity (MOLM-14 [30]): inactive
- Activity (MOLM-14 [31]): inactive
- Activity (MOLM-14 [32]): inactive
- Activity (MOLM-14 [33]): inactive
- Activity (MOLM-14 [34]): inactive
- Activity (MOLM-14 [35]): inactive
- Activity (MOLM-14 [36]): inactive
- Activity (MOLM-14 [37]): inactive
- Activity (MOLM-14 [38]): inactive
- Activity (MOLM-14 [39]): inactive
- Activity (MOLM-14 [40]): inactive
- Activity (MOLM-14 [41]): inactive
